Experimental data reported in ChEMBL document CHEMBL5465560, “Selectivity Literature for EUbOPEN Chemogenomic Library” (2024).

Assays:
[1] = molecular target: Wee1-like protein kinase (Homo sapiens) (UniProt P30291); assay: Selectivity interaction (KinomeScan (DiscoverX)) EUB0000595a WEE1; conditions: at 10 µM
[2] = molecular target: T1, Histone-lysine N-methyltransferase SETD7 (Homo sapiens) (UniProt Q8WTS6); conditions: at 1 µM
T1 sequence (whole entry): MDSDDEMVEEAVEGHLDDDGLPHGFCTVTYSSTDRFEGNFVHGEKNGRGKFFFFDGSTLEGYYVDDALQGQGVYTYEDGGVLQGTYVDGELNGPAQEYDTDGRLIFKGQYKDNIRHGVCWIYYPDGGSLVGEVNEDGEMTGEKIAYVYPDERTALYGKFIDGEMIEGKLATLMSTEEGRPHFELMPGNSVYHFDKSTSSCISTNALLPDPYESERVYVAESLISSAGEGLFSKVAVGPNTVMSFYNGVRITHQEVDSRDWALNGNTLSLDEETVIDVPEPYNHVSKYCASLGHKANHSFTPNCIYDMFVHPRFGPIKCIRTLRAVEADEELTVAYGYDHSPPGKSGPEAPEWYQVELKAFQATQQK

[3] = molecular target: Casein kinase I isoform delta (Homo sapiens, UniProt P48730); assay: Selectivity interaction (Kinase panel (DSF assay)) EUB0001559a CSNK1D
[4] = molecular target: T2, Myotonin-protein kinase (Homo sapiens) (UniProt Q09013); assay: Selectivity interaction (LanthaScreen Eu Kinase Binding Assay) EUB0001632a DMPK; conditions: at 10 µM
T2 sequence (whole entry): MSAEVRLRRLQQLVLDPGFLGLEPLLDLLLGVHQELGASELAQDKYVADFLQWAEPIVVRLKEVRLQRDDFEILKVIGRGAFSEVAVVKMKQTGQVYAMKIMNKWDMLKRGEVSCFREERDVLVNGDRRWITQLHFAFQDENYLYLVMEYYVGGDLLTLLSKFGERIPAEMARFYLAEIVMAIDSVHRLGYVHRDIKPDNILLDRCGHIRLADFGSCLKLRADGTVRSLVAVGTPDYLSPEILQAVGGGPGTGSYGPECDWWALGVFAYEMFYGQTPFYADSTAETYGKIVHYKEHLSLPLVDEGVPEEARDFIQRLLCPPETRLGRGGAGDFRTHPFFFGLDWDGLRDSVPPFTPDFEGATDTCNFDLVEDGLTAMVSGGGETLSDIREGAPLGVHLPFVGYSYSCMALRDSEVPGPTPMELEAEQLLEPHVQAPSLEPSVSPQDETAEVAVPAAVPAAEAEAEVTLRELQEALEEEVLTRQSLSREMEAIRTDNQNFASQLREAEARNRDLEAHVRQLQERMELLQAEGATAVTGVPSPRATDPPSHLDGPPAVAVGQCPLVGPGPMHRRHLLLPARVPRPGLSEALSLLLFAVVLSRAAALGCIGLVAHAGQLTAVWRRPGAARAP

[5] = molecular target: T3, Serine/threonine-protein kinase ULK1 (Homo sapiens) (UniProt O75385); assay: Selectivity interaction (KinomeScan (DiscoverX)) EUB0000666a ULK1; conditions: at 10 µM
T3 sequence (whole entry): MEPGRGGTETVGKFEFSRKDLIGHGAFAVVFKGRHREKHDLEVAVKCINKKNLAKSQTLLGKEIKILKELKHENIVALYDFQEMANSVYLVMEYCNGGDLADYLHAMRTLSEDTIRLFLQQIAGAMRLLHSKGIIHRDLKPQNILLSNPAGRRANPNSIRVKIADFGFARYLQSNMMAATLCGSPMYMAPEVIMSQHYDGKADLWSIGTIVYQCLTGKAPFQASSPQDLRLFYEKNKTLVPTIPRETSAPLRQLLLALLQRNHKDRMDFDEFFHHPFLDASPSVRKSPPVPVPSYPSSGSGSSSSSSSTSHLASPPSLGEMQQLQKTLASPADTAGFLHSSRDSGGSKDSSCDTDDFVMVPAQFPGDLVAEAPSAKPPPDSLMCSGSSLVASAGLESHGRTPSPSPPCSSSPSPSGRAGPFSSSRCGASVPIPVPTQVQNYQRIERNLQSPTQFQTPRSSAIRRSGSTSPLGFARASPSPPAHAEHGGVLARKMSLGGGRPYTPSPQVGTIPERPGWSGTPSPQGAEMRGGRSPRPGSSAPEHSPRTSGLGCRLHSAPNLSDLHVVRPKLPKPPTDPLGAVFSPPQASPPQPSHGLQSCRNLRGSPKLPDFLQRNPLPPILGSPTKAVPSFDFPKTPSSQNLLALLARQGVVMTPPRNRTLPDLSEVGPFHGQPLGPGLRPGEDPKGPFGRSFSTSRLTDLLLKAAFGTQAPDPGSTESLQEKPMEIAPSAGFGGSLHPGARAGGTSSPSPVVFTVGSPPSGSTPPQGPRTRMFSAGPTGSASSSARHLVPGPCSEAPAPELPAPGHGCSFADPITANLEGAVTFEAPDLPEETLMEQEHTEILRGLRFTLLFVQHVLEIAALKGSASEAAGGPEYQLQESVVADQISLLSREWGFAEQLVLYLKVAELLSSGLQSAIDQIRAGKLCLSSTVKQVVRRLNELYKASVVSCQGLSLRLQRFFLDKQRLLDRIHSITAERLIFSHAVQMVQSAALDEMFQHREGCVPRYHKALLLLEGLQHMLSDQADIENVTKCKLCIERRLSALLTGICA

[6] = molecular target: Protein kinase C theta type (Homo sapiens, UniProt Q04759); assay: Selectivity interaction (Kinase screening (Upstate/Millipore)) EUB0000604a PRKCQ
Protein kinase C theta type, sequence (Q04759 whole entry, looked up): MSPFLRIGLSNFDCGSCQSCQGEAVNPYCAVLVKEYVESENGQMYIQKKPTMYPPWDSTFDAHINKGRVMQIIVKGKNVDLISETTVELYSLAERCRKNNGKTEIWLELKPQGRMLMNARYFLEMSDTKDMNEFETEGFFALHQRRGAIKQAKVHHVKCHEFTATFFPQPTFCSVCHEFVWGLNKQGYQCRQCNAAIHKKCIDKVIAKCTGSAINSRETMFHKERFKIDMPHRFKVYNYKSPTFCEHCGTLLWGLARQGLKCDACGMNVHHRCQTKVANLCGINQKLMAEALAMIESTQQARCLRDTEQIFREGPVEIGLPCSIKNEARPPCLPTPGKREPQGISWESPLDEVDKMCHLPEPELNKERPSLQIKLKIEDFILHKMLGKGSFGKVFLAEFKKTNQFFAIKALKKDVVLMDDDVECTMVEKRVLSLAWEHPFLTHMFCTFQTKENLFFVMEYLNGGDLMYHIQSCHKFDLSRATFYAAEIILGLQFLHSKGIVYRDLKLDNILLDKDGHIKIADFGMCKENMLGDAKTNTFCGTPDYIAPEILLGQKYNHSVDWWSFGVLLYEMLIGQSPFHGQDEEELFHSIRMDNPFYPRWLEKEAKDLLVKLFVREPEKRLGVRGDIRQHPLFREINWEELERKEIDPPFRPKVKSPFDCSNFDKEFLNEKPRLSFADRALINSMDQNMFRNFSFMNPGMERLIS

[7] = molecular target: Calcium/calmodulin-dependent protein kinase type 1 (Homo sapiens) (UniProt Q14012); assay: Selectivity interaction (Kinase panel (Invitrogen)) EUB0000639a CAMK1; conditions: at 200 nM
Calcium/calmodulin-dependent protein kinase type 1 (Homo sapiens), sequence (Q14012 whole entry, looked up): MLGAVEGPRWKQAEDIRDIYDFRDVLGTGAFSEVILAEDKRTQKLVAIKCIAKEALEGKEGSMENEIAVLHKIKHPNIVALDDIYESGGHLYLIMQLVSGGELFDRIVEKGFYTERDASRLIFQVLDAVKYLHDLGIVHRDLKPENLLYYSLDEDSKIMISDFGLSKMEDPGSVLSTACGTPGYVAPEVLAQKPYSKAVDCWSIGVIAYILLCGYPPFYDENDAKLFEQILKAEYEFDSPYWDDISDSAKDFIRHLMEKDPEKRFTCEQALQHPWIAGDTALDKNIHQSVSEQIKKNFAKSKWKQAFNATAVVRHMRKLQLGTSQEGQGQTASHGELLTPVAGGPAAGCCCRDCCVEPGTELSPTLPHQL

[8] = tested on: Epidermal growth factor receptor (Homo sapiens), P00533 [G719C]; assay: (§1) Selectivity interaction (KinomeScan (DiscoverX)) EUB0000655a EGFR; conditions: at 10 µM
[9] = tested on: Epidermal growth factor receptor (Homo sapiens), P00533 [G719S]; assay: as §1; conditions: at 10 µM
[10] = tested on: Epidermal growth factor receptor (Homo sapiens), P00533 [T790M]; assay: as §1; conditions: at 10 µM
Epidermal growth factor receptor (Homo sapiens), P00533 [T790M], sequence (P00533 whole entry T790M): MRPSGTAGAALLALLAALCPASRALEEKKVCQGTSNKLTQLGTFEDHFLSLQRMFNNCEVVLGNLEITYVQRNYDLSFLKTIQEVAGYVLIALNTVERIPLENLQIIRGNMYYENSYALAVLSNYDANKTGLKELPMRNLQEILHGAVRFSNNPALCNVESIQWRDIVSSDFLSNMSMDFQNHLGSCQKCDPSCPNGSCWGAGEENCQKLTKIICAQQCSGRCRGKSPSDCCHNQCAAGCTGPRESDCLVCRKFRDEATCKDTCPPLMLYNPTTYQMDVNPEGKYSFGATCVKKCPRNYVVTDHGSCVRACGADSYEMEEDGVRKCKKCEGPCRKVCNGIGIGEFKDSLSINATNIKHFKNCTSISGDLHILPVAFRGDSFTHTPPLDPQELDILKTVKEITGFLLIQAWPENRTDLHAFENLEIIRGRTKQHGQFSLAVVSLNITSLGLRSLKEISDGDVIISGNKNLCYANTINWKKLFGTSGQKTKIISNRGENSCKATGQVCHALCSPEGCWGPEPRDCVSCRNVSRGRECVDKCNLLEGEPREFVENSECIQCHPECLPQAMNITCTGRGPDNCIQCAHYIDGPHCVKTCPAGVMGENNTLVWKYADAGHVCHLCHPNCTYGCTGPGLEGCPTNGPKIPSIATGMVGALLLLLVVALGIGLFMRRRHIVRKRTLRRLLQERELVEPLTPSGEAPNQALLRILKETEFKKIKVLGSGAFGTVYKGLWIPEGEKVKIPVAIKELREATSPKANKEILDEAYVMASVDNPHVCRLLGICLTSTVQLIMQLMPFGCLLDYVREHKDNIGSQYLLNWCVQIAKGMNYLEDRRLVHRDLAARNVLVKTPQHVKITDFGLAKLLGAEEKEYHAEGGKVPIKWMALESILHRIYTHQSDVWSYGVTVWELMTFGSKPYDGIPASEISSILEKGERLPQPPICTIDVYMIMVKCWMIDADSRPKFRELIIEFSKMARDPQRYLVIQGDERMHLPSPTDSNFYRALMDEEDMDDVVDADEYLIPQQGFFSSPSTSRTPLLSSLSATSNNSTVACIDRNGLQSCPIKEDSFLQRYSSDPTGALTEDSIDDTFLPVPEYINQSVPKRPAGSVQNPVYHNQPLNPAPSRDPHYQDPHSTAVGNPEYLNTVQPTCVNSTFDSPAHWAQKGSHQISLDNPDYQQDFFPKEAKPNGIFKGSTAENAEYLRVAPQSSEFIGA

[11] = tested on: Epidermal growth factor receptor (Homo sapiens), P00533 [UNDEFINED MUTATION]; assay: as §1; conditions: at 10 µM
Epidermal growth factor receptor (Homo sapiens), P00533 [UNDEFINED MUTATION], sequence (P00533 whole entry, looked up, stated change not applied): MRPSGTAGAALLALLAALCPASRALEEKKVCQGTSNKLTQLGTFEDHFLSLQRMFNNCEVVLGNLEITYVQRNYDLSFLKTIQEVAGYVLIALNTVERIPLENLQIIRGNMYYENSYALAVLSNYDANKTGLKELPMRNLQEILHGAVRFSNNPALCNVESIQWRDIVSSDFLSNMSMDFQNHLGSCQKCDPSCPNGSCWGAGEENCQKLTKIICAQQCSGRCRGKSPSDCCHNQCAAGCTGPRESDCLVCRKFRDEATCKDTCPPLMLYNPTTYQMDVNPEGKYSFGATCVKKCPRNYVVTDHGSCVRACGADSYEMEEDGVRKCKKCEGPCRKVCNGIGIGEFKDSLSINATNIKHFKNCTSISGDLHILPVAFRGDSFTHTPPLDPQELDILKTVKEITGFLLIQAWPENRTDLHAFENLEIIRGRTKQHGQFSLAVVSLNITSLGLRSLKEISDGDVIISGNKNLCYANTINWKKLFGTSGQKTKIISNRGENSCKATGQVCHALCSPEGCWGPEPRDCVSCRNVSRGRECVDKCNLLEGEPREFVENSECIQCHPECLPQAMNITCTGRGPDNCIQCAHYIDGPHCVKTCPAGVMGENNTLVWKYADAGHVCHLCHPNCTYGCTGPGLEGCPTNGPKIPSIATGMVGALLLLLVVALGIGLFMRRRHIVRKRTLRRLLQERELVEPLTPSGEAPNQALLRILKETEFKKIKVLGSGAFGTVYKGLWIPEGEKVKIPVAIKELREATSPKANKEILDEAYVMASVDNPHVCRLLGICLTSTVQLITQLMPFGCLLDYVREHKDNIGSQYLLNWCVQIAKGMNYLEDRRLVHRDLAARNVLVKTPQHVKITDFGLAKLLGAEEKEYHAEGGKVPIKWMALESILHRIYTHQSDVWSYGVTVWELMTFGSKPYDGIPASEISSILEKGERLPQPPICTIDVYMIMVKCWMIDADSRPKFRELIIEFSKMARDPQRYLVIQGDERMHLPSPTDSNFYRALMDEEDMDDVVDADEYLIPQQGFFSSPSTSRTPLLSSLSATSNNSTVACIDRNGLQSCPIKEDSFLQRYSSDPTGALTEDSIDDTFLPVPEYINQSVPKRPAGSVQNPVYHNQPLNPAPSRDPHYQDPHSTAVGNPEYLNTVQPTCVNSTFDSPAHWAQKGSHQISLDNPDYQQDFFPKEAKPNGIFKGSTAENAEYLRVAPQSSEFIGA

[12] = tested on: Epidermal growth factor receptor (Homo sapiens), P00533 [L858R,T790M]; assay: as §1; conditions: at 10 µM
[13] = tested on: Epidermal growth factor receptor (Homo sapiens), P00533 [L861Q]; assay: as §1; conditions: at 10 µM
[14] = tested on: Epidermal growth factor receptor (Homo sapiens), P00533 [L858R]; assay: as §1; conditions: at 10 µM
[15] = molecular target: Epidermal growth factor receptor (Homo sapiens, UniProt P00533); assay: as §1; conditions: at 10 µM
Epidermal growth factor receptor, sequence (P00533 whole entry): as the sequence (P00533 whole entry, looked up, stated change not applied) above

[16] = molecular target: Serine/threonine-protein kinase 32B (Homo sapiens) (UniProt Q9NY57); assay: Selectivity interaction (Ambit KINOMEscan and KiNATiv profiling in Jurkat cells) EUB0000090b STK32B; format: cell-based; conditions: at 1 µM

## COCC(=O)NC/C=C/c1ccc2ncnc(Nc3ccc(Oc4ccc(C)nc4)c(C)c3)c2c1 [CP-724714]
[1]
  % of control: 100%

## CNCCN1CCC(c2cc(CN(C)C(=O)c3cccc(Oc4ccccc4)c3)ccn2)CC1
[2]
  % activity: > 90%

## CN(C(=O)c1cnn2cccnc12)c1cc2c(cc1N1CCOCC1)C(=O)N(C[C@@H](F)C(C)(C)O)C2
[3]
  dTM: -0.9 K

## Cn1cc(-n2cnc3c(NCc4nc5cc(Cl)c(Cl)cc5[nH]4)nc(N4CCOCC4)nc32)cn1
[4]
  % of inhibition: -4.81%

## O=C(NOC[C@H](O)CO)c1ccc(F)c(F)c1Nc1ccc(I)cc1F
[5]
  % of control: 100%

## Cc1cnc(Nc2ccc(F)cc2Cl)nc1-c1c[nH]c(C(=O)N[C@H](CO)c2cccc(Cl)c2)c1
[6]
  % of inhibition: 17%

## CC[C@@H]1[C@H](F)C(=O)N[C@@H]1COc1nccc2cc(C(N)=O)c(OC)cc12 [ZIMLOVISERTIB]
[7]
  % of inhibition: -15.3%

## CN(C)CCOc1ccc(-c2nc(-c3ccncc3)c(-c3ccc4c(c3)CC/C4=N\O)[nH]2)cc1
[8]
  % of control: 59%
[9]
  % of control: 70%
[10]
  % of control: 34%
[11]
  % of control: 100%
[12]
  % of control: 93%
[13]
  % of control: 34%
[14]
  % of control: 54%
[15]
  % of control: 95%

## CN(C)C/C=C/C(=O)Nc1ccc(C(=O)N2CCCC(Nc3ncc(Cl)c(-c4c[nH]c5ccccc45)n3)C2)cc1 (stereo unspecified)
[16]
  % of control: 90%
